{"source": "paper PMC6679423", "about": "(International Journal of Molecular Sciences, 2019)", "assay_type_in_all_cases": "in vitro ADME", "key": {"human liver microsomes": {"system": "human liver microsomes", "assay": "Vandetanib metabolite formation by hepatic microsomes of 12 human donors"}, "human recombinant CYP2D6": {"molecular_target": "T1, human recombinant CYP2D6 (Homo sapiens, UniProt P10635)", "T1 construct": "purchased Gentest Corp; host or cells: insect cells (baculovirus)", "T1 sequence (P10635 whole entry)": "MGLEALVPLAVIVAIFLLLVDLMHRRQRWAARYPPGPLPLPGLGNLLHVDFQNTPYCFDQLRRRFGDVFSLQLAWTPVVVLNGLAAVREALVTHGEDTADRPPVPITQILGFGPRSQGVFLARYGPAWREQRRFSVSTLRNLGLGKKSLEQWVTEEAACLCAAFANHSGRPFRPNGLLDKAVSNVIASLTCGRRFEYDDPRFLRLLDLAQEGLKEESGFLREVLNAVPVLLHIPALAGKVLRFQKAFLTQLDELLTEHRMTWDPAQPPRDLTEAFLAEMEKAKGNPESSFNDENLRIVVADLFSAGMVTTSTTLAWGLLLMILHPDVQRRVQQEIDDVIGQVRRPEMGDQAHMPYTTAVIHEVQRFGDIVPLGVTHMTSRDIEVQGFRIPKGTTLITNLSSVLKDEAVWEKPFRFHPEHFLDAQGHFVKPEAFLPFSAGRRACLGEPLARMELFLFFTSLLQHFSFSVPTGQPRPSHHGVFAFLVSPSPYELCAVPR", "assay": "Vandetanib oxidation by human recombinant CYP2D6 (Supersomes)", "protocol": "The purity of all chemicals met the standards of American Chemical Society, unless noted otherwise. […] Animals were placed in cages in temperature- and humidity-controlled rooms, acclimatized for five days and maintained at 22 °C with a 12 h light/dark period. Standardized diet and water were provided ad libitum. Rats, mice and rabbits used to prepare microsomal fraction from untreated animals were sacrificed by cervical dislocation, livers snap-frozen in liquid nitrogen and stored at −80 °C until further processing (see below). For controls, livers of the animals were removed immediately after sacrifice, divided into small pieces (~1 g), snap-frozen in liquid nitrogen, and stored at −80 °C until isolation of microsomal fractions. Pooled microsomes were used for all in vitro experiments in the present study and prepared from 10 livers/group for all animal species following established protocols. Microsomal fractions were stored at −80 °C until analysis. Protein concentrations in the microsomal fractions were assessed using the bicinchoninic acid protein assay with bovine serum albumin as a standard. […] Microsomes from livers of twelve human donors were obtained from Gentest Corp. (Woburn, MA, USA) (cat. no. HG43–1, HG103, HG74, HG93, HG24, HG27, HG23, HG32, HK31, HK34, HG03, and HG42). […]"}, "human hepatic microsomes": {"system": "human hepatic microsomes", "assay": "Correlation of CYP- and FMO-linked activities with vandetanib metabolite formation in human hepatic microsomes", "details": "12 human liver microsomal samples; for Correlation coefficient (r) of metabolite amount with CYP2B6 activity: (S)-mephenytoin-N-demethylase; for Correlation coefficient (r) of metabolite amount with CYP2A6 activity: coumarine-7-hydroxylase; for Correlation coefficient (r) of metabolite amount with CYP2C8 activity: paclitaxel-6α-hydroxylase; for Correlation coefficient (r) of metabolite amount with CYP3A4 activity: testosterone-6β-hydroxylase", "protocol": "Vandetanib was from LC Laboratories (Woburn, MA, USA). Ketoconazole, NADPH, methimazol and other chemicals were all purchased from Sigma-Aldrich (St. Louis, MO, USA). The purity of all chemicals met the standards of American Chemical Society, unless noted otherwise. All animal experiments were conducted in accordance with the Regulations for the Care and Use of Laboratory Animals (311/1997, Ministry of Agriculture, Czech Republic), which follows the Declaration of Helsinki. Male Wistar rats (~125–150 g; AnLab, Czech Republic), male C57BL/6 mice ([…]; CXR Bioscience Ltd., Dundee, UK), and male New Zealand rabbits (2.5–3 kg; AnLab, Czech Republic) were employed as animal models. Animals were placed in cages in temperature- and humidity-controlled rooms, acclimatized for five days and maintained at 22 °C with a 12 h light/dark period. Standardized diet and water were provided ad libitum. Rats, mice and rabbits used to prepare microsomal fraction from untreated animals were sacrificed by cervical dislocation, livers snap-frozen in liquid nitrogen and stored at −80 °C until further processing (see below). For controls, livers of the animals were removed immediately after sacrifice, divided into small pieces (~1 g), snap-frozen in liquid nitrogen, and stored at −80 °C until isolation of microsomal fractions. Pooled microsomes were used for all in vitro experiments in the present study and prepared from 10 livers/group for all animal species following established protocols. Microsomal fractions were stored at −80 °C until analysis. Protein concentrations in the microsomal fractions were assessed using the bicinchoninic acid protein assay with bovine serum albumin as a standard. Male human hepatic microsomes (pooled sample) (sample LOT: 3043885) were from Gentest Corp. (Woburn, MA, USA). Microsomes from livers of twelve human donors were obtained from Gentest Corp. (Woburn, MA, USA) (cat. no. HG43–1, HG103, HG74, HG93, HG24, HG27, HG23, HG32, HK31, HK34, HG03, and HG42). Each human microsomal sample has been characterized for CYP, FMO and protein contents and specific CYP activities by Gentest Corp. We reanalyzed each microsomal preparation for specific CYP, NADPH:CYP reductase (POR) and FMO activities by assays described in the protocols of Gentest Corp. Our data were similar to those reported by Gentest Corp. in their specification sheets. The content of CYP, specific CYP and FMO activities in each human hepatic microsomes [phenacetin-O-deethylation (CYP1A2), coumarin-7-hydroxylation (CYP2A6), (S)-mephenytoin-N-demethylase (CYP2B6), paclitaxel-6α-hydroxylation (CYP2C8), diclofenac-4’-hydroxylation (CYP2C9), (S)-mephenytoin-4′-hydroxylation (CYP2C19), bufuralol-1’-hydroxylation (CYP2D6), chlorzoxazone-6-hydroxylation (CYP2E1), testosterone-6β-hydroxylation (CYP3A4), lauric acid-12-hydroxylation (CYP4A), methyl-p-tolyl sulfide oxidase (FMO)] are shown in Table 2. Human recombinant enzymes were used in the forms of Supersomes™ and obtained from Gentest Corp. In Supersomes™ microsomal fractions were isolated from insect cells that are transfected with baculovirus constructs containing cDNA of human CYP enzymes (CYP1A1/2, 1B1, 2A6, 2B6, 2C8/9/18/19/, 2D6, 2E1, 3A4). These Supersomes™ also express NADPH:CYP oxidoreductase (POR). However, because they are microsomes (particles of broken endoplasmic reticulum), other enzymes (proteins) of the endoplasmic reticulum membrane (like NADH:cytochrome b5 reductase and cytochrome b5) are also expressed at basal levels in these Supersomes™. We also utilized Supersomes™ which over-expressed cytochrome b5, in a molar ratio of CYP to cytochrome b5 of 1 to 5. In Supersomes™ where cytochrome b5 was not over-expressed (see above) pure cytochrome b5 was added to reach a molar ratio of CYP to cytochrome b5 of 1 to 5. Reconstitution of Supersomes™ with purified cytochrome b5 was performed as described previously. […]"}}, "note": "Marks after values point to notes of the source that are not given here.", "data": [{"compound": "COc1cc2c(Nc3ccc(Br)cc3F)ncnc2cc1OCC1CCNCC1", "note": "[N-desmethylvandetanib]", "values": [{"measurement": "N-desmethylvandetanib (M1) formed", "setting": "human liver microsomes; human hepatic microsomal sample HK23", "result": "4.137 peak area/(mg protein × min)"}, {"measurement": "N-desmethylvandetanib (M1) formed", "setting": "human liver microsomes; human hepatic microsomal sample HK27", "result": "1.762 peak area/(mg protein × min)"}, {"measurement": "effect of cytochrome b5 on N-desmethylvandetanib formation", "setting": "human recombinant CYP2D6; CYP2D6 with vs without cytochrome b5", "result": "essentially no such effect"}, {"measurement": "contribution of CYP2D6 to N-desmethylvandetanib formation in human liver", "setting": "human recombinant CYP2D6; without consideration of cytochrome b5", "result": "~ 1.7%"}, {"measurement": "Correlation coefficient (r) of metabolite amount with Cyt b5", "setting": "human hepatic microsomes", "result": "−0.114"}, {"measurement": "Correlation coefficient (r) of metabolite amount with POR", "setting": "human hepatic microsomes", "result": 0.700}, {"measurement": "Correlation coefficient (r) of metabolite amount with Total CYPs", "setting": "human hepatic microsomes", "result": "0.786 **"}, {"measurement": "Correlation coefficient (r) of metabolite amount with CYP2C19 activity", "setting": "human hepatic microsomes; (S)-mephenytoin-4′-hydroxylase", "result": "−0.168"}, {"measurement": "Correlation coefficient (r) of metabolite amount with CYP2B6 activity", "setting": "human hepatic microsomes", "result": 0.826}, {"measurement": "Correlation coefficient (r) of metabolite amount with CYP2B6 activity", "setting": "human hepatic microsomes; listed as M1", "result": "0.826 ***"}, {"measurement": "Correlation coefficient (r) of metabolite amount with CYP2D6 activity", "setting": "human hepatic microsomes; bufuralol-1′-hydroxylase", "result": 0.165}, {"measurement": "Correlation coefficient (r) of metabolite amount with CYP2E1 activity", "setting": "human hepatic microsomes; chlorzoxazone-6-hydroxylase", "result": 0.043}, {"measurement": "Correlation coefficient (r) of metabolite amount with CYP2A6 activity", "setting": "human hepatic microsomes", "result": 0.778}, {"measurement": "Correlation coefficient (r) of metabolite amount with CYP2A6 activity", "setting": "human hepatic microsomes; listed as M1", "result": "0.778 **"}, {"measurement": "Correlation coefficient (r) of metabolite amount with CYP2C9 activity", "setting": "human hepatic microsomes; diclofenac-4′-hydroxylase", "result": "−0.034"}, {"measurement": "Correlation coefficient (r) of metabolite amount with FMO activity", "setting": "human hepatic microsomes; methyl-p-tolyl sulfide oxidase", "result": 0.270}, {"measurement": "Correlation coefficient (r) of metabolite amount with CYP2C8 activity", "setting": "human hepatic microsomes", "result": 0.747}, {"measurement": "Correlation coefficient (r) of metabolite amount with CYP2C8 activity", "setting": "human hepatic microsomes; listed as M1", "result": "0.747 **"}, {"measurement": "Correlation coefficient (r) of metabolite amount with CYP1A2 activity", "setting": "human hepatic microsomes; phenacetin-O-deethylase", "result": 0.018}, {"measurement": "Correlation coefficient (r) of metabolite amount with CYP3A4 activity", "setting": "human hepatic microsomes", "result": 0.984}, {"measurement": "Correlation coefficient (r) of metabolite amount with CYP3A4 activity", "setting": "human hepatic microsomes; listed as M1", "result": "0.984 ***"}]}]}
